{"source": "PubChem BioAssay AID1963964", "about": "(Molecular Pharmacology Branch, DTP, NCI, 2024)", "system": "997726-040-R-J2-PDC tumor spheroids, viability", "test": "Anticancer human tumor 997726-040-R-J2-PDC patient-derived squamous cell lung carcinoma cell line growth inhibition [PI3K]", "conditions": "spheroids with HUVEC and MSC; for IC50: curve of first compound; for viability, T/C: stronger effect = lower value", "summary_of_the_method": "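Tumor cells grown as multi-cell spheroids with HUVEC endothelial cells and MSC fibroblast-like stroma were treated with targeted agents combined with inavolisib, alpelisib, duvelisib or copanlisib. Doses fell in half-log steps from near clinical Cmax, else from 10 microM. Viability was measured.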", "key": {"[1]": {"conditions": "second compound 0.0316 µM, first compound 0.0316 µM"}, "[2]": {"conditions": "second compound 0.0316 µM, first compound 0.1 µM"}, "[3]": {"conditions": "second compound 0.1 µM, first compound 0.0316 µM"}, "[4]": {"conditions": "second compound 0.1 µM, first compound 0.1 µM"}, "[5]": {"conditions": "second compound 0.316 µM, first compound 0.0316 µM"}, "[6]": {"conditions": "second compound 0.316 µM, first compound 0.1 µM"}, "[7]": {"conditions": "second compound 1 µM, first compound 0.0316 µM"}, "[8]": {"conditions": "second compound 1 µM, first compound 0.1 µM"}, "[9]": {"conditions": "second compound 3.16 µM, first compound 0.0316 µM"}, "[10]": {"conditions": "second compound 3.16 µM, first compound 0.1 µM"}, "[11]": {"conditions": "second compound 10 µM, first compound 0.0316 µM"}, "[12]": {"conditions": "second compound 10 µM, first compound 0.1 µM"}}, "data": [{"molecule": "CC(C)NCC(C(=O)N1CCN(c2ncnc3c2C(C)CC3O)CC1)c1ccc(Cl)cc1", "note": "(centres undefined) + CC(Nc1ncnc2nc[nH]c12)c1cc2cccc(Cl)c2c(=O)n1-c1ccccc1;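 also: spheroids exposed to compounds for seven days before readout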", "values": [{"measurement": "IC50", "setting": "second compound 0.0316 µM", "value": 388, "unit": "nM"}, {"measurement": "IC50", "setting": "second compound 0.1 µM", "value": 400, "unit": "nM"}, {"measurement": "IC50", "setting": "second compound 0.316 µM", "value": 398, "unit": "nM"}, {"measurement": "IC50", "setting": "second compound 1 µM", "value": 297, "unit": "nM"}, {"measurement": "IC50", "setting": "second compound 3.16 µM", "value": 278, "unit": "nM"}, {"measurement": "IC50", "setting": "second compound 10 µM", "value": 55.6, "unit": "nM"}, {"measurement": "viability, T/C", "setting": "[1]", "value": 82.7, "unit": "%"}, {"measurement": "viability, T/C", "setting": "[2]", "value": 74.3, "unit": "%"}, {"measurement": "viability, T/C", "setting": "second compound 0.0316 µM, first compound 0.316 µM", "value": 54.4, "unit": "%"}, {"measurement": "viability, T/C", "setting": "second compound 0.0316 µM, first compound 1 µM", "value": 29.7, "unit": "%"}, {"measurement": "viability, T/C", "setting": "second compound 0.0316 µM, first compound 3.16 µM", "value": 14.6, "unit": "%"}, {"measurement": "viability, T/C", "setting": "second compound 0.0316 µM, first compound 10 µM", "value": 10.8, "unit": "%"}, {"measurement": "viability, T/C", "setting": "[3]", "value": 79.5, "unit": "%"}, {"measurement": "viability, T/C", "setting": "[4]", "value": 85.4, "unit": "%"}, {"measurement": "viability, T/C", "setting": "second compound 0.1 µM, first compound 0.316 µM", "value": 50.1, "unit": "%"}, {"measurement": "viability, T/C", "setting": "second compound 0.1 µM, first compound 1 µM", "value": 31.6, "unit": "%"}, {"measurement": "viability, T/C", "setting": "second compound 0.1 µM, first compound 3.16 µM", "value": 12.7, "unit": "%"}, {"measurement": "viability, T/C", "setting": "second compound 0.1 µM, first compound 10 µM", "value": 10.7, "unit": "%"}, {"measurement": "viability, T/C", "setting": "[5]", "value": 87.1, "unit": "%"}, {"measurement": "viability, T/C", "setting": "[6]", "value": 87.3, "unit": "%"}, {"measurement": "viability, T/C", "setting": "second compound 0.316 µM, first compound 0.316 µM", "value": 53.1, "unit": "%"}, {"measurement": "viability, T/C", "setting": "second compound 0.316 µM, first compound 1 µM", "value": 27.4, "unit": "%"}, {"measurement": "viability, T/C", "setting": "second compound 0.316 µM, first compound 3.16 µM", "value": 15.5, "unit": "%"}, {"measurement": "viability, T/C", "setting": "second compound 0.316 µM, first compound 10 µM", "value": 9.73, "unit": "%"}, {"measurement": "viability, T/C", "setting": "[7]", "value": 88.9, "unit": "%"}, {"measurement": "viability, T/C", "setting": "[8]", "value": 69.2, "unit": "%"}, {"measurement": "viability, T/C", "setting": "second compound 1 µM, first compound 0.316 µM", "value": 48.7, "unit": "%"}, {"measurement": "viability, T/C", "setting": "second compound 1 µM, first compound 1 µM", "value": 32, "unit": "%"}, {"measurement": "viability, T/C", "setting": "second compound 1 µM, first compound 3.16 µM", "value": 15, "unit": "%"}, {"measurement": "viability, T/C", "setting": "second compound 1 µM, first compound 10 µM", "value": 9.4, "unit": "%"}, {"measurement": "viability, T/C", "setting": "[9]", "value": 80.1, "unit": "%"}, {"measurement": "viability, T/C", "setting": "[10]", "value": 69.6, "unit": "%"}, {"measurement": "viability, T/C", "setting": "second compound 3.16 µM, first compound 0.316 µM", "value": 46.3, "unit": "%"}, {"measurement": "viability, T/C", "setting": "second compound 3.16 µM, first compound 1 µM", "value": 28.3, "unit": "%"}, {"measurement": "viability, T/C", "setting": "second compound 3.16 µM, first compound 3.16 µM", "value": 15.3, "unit": "%"}, {"measurement": "viability, T/C", "setting": "second compound 3.16 µM, first compound 10 µM", "value": 10.8, "unit": "%"}, {"measurement": "viability, T/C", "setting": "[11]", "value": 54.7, "unit": "%"}, {"measurement": "viability, T/C", "setting": "[12]", "value": 42.8, "unit": "%"}, {"measurement": "viability, T/C", "setting": "second compound 10 µM, first compound 0.316 µM", "value": 41.8, "unit": "%"}, {"measurement": "viability, T/C", "setting": "second compound 10 µM, first compound 1 µM", "value": 27.3, "unit": "%"}, {"measurement": "viability, T/C", "setting": "second compound 10 µM, first compound 3.16 µM", "value": 13.7, "unit": "%"}, {"measurement": "viability, T/C", "setting": "second compound 10 µM, first compound 10 µM", "value": 9.38, "unit": "%"}]}, {"molecule": "Cn1ncnc1[C@H]1c2n[nH]c(=O)c3cc(F)cc(c23)N[C@@H]1c1ccc(F)cc1", "note": "+ CC(Nc1ncnc2nc[nH]c12)c1cc2cccc(Cl)c2c(=O)n1-c1ccccc1", "values": [{"measurement": "IC50", "setting": "second compound 0.0316 µM", "value": "> 100", "unit": "nM"}, {"measurement": "IC50", "setting": "second compound 0.1 µM", "value": "> 100", "unit": "nM"}, {"measurement": "IC50", "setting": "second compound 0.316 µM", "value": "> 100", "unit": "nM"}, {"measurement": "IC50", "setting": "second compound 1 µM", "value": "> 100", "unit": "nM"}, {"measurement": "IC50", "setting": "second compound 3.16 µM", "value": "> 100", "unit": "nM"}, {"measurement": "IC50", "setting": "second compound 10 µM", "value": 80.4, "unit": "nM"}, {"measurement": "viability, T/C", "setting": "second compound 0.0316 µM, first compound 0.000316 µM", "value": 101, "unit": "%"}, {"measurement": "viability, T/C", "setting": "second compound 0.0316 µM, first compound 0.001 µM", "value": 99.9, "unit": "%"}, {"measurement": "viability, T/C", "setting": "second compound 0.0316 µM, first compound 0.00316 µM", "value": 102, "unit": "%"}, {"measurement": "viability, T/C", "setting": "second compound 0.0316 µM, first compound 0.01 µM", "value": 112, "unit": "%"}, {"measurement": "viability, T/C", "setting": "[1]", "value": 99.7, "unit": "%"}, {"measurement": "viability, T/C", "setting": "[2]", "value": 96.8, "unit": "%"}, {"measurement": "viability, T/C", "setting": "second compound 0.1 µM, first compound 0.000316 µM", "value": 96.5, "unit": "%"}, {"measurement": "viability, T/C", "setting": "second compound 0.1 µM, first compound 0.001 µM", "value": 99.7, "unit": "%"}, {"measurement": "viability, T/C", "setting": "second compound 0.1 µM, first compound 0.00316 µM", "value": 94.4, "unit": "%"}, {"measurement": "viability, T/C", "setting": "second compound 0.1 µM, first compound 0.01 µM", "value": 102, "unit": "%"}, {"measurement": "viability, T/C", "setting": "[3]", "value": 98.4, "unit": "%"}, {"measurement": "viability, T/C", "setting": "[4]", "value": 97.1, "unit": "%"}, {"measurement": "viability, T/C", "setting": "second compound 0.316 µM, first compound 0.000316 µM", "value": 93.5, "unit": "%"}, {"measurement": "viability, T/C", "setting": "second compound 0.316 µM, first compound 0.001 µM", "value": 99.4, "unit": "%"}, {"measurement": "viability, T/C", "setting": "second compound 0.316 µM, first compound 0.00316 µM", "value": 98, "unit": "%"}, {"measurement": "viability, T/C", "setting": "second compound 0.316 µM, first compound 0.01 µM", "value": 101, "unit": "%"}, {"measurement": "viability, T/C", "setting": "[5]", "value": 97.6, "unit": "%"}, {"measurement": "viability, T/C", "setting": "[6]", "value": 99.3, "unit": "%"}, {"measurement": "viability, T/C", "setting": "second compound 1 µM, first compound 0.000316 µM", "value": 100, "unit": "%"}, {"measurement": "viability, T/C", "setting": "second compound 1 µM, first compound 0.001 µM", "value": 95.3, "unit": "%"}, {"measurement": "viability, T/C", "setting": "second compound 1 µM, first compound 0.00316 µM", "value": 90.4, "unit": "%"}, {"measurement": "viability, T/C", "setting": "second compound 1 µM, first compound 0.01 µM", "value": 86.2, "unit": "%"}, {"measurement": "viability, T/C", "setting": "[7]", "value": 86.2, "unit": "%"}, {"measurement": "viability, T/C", "setting": "[8]", "value": 89.1, "unit": "%"}, {"measurement": "viability, T/C", "setting": "second compound 3.16 µM, first compound 0.000316 µM", "value": 70.3, "unit": "%"}, {"measurement": "viability, T/C", "setting": "second compound 3.16 µM, first compound 0.001 µM", "value": 77.9, "unit": "%"}, {"measurement": "viability, T/C", "setting": "second compound 3.16 µM, first compound 0.00316 µM", "value": 69.7, "unit": "%"}, {"measurement": "viability, T/C", "setting": "second compound 3.16 µM, first compound 0.01 µM", "value": 65.5, "unit": "%"}, {"measurement": "viability, T/C", "setting": "[9]", "value": 89.9, "unit": "%"}, {"measurement": "viability, T/C", "setting": "[10]", "value": 67.2, "unit": "%"}, {"measurement": "viability, T/C", "setting": "second compound 10 µM, first compound 0.000316 µM", "value": 54.8, "unit": "%"}, {"measurement": "viability, T/C", "setting": "second compound 10 µM, first compound 0.001 µM", "value": 61.6, "unit": "%"}, {"measurement": "viability, T/C", "setting": "second compound 10 µM, first compound 0.00316 µM", "value": 55.3, "unit": "%"}, {"measurement": "viability, T/C", "setting": "second compound 10 µM, first compound 0.01 µM", "value": 54, "unit": "%"}, {"measurement": "viability, T/C", "setting": "[11]", "value": 55, "unit": "%"}, {"measurement": "viability, T/C", "setting": "[12]", "value": 48.9, "unit": "%"}]}]}
